Assay results: US20240210412A1, “SULFONYL-TRIAZOLE COMPOUNDS USEFUL AS LIGANDS AND INHIBITORS OF PROSTAGLANDIN REDUCTASE 2” (University of Virginia Patent Foundation, priority 2021, published 2024)

How the values were obtained:
Experiment in all cases: SILAC LC-MS ABPP
Conditions in all cases: 25 μM 2 h, live DM93 cells
Q9ULV4 = biological target: T1, Q9ULV4 (Homo sapiens, UniProt Q9ULV4); type: cell-based
T1 construct: endogenous in cells; host or cells: DM93 cells (SILAC)
Procedure: (§1) Cells were grown to 90-95% confluence before being washed once with warm, sterile DPBS (1×, 5 mL), followed by addition of 10 mL of serum-free media (supplemented with 1% L-glutamine) containing either DMSO or SuTEx fragment (in DMSO) was added. Light cells were treated with DMSO vehicle while the heavy cells were treated with DMSO or SuTEx fragment (in DMSO) and incubated for 2 hrs. After 2 hrs, the cells were treated with SuTEx alkyne probe (HHS475, 10 μL of 1000× DMSO stock) and incubated for an additional 2 hrs. The media was aspirated and cells washed with cold PBS (5 mL) and harvested. Cells were spun at 500×g for 5 min at 4° C. followed by removal of supernatant. Pellets were resuspended in 1 mL of cold DPBS and spun at 1,400×g for 3 min at 4° C. followed by removal of supernatant. The cells were lysed in PBS by sonication and fractionated (100,000×g, 45 min, 4° C.).The light and heavy soluble fractions were diluted to 2.3 mg/mL in PBS and 432 μL were used for analysis (1 mg total protein). The probe-modified proteomes were conjugated to desthiobiotin-PEG3-azide (10 μl of 10 mM stock in DMSO; 200 μM final concentration) using TCEP (10 μl of fresh 50 mM stock in water, 1 mM final concentration), TBTA ligand (33 μl of a 1.7 mM 4:1 t-butanol/DMSO stock, 100 μM final concentration) and CuSO4 (10 μl of 50 mM stock, 1 mM final concentration). Samples were vortexed to mix and incubated for 1 hr at room temperature. The heavy and light proteomes were mixed 1:1 and the subsequent steps, including LC-MS/MS data analysis, were performed as previously described^[8a].
(§2) Coupling cell-based screens with chemical proteomics can facilitate the identification of target protein and binding sites that engage and are irreversibly modified by covalent ligands^[12]. In these assays, covalent ligands block SuTEx activity-based probe (ABP) labeling at protein sites, and the competition of probe labeling can be used to quantify potency and selectivity across the proteome^[10a]. To facilitate quantitative chemical proteomics, DM93 melanoma cells were cultured using stable isotopic labeling by amino acids in cell culture (SILAC)^[13]. Cells cultured in “light” media were treated with dimethyl sulfoxide (DMSO) vehicle while cells cultured in “heavy” media were treated with SuTEx ligand (25 μM, 2 hours, 37° C.). Next, cells were treated with HHS-475 probe (100 μM, 2 hours, 37° C.) followed by lysis and processing of proteomes for analysis. Probe-modified proteins from the soluble fraction were conjugated to a desthiobiotin-azide tag by copper-catalyzed azide-alkyne cycloaddition (CuAAC)^[14] followed by mixing of the light and heavy proteomes. The combined proteomes were digested with trypsin protease to produce probe-modified peptides, followed by enrichment and purification by avidin affinity chromatography. Probe-modified peptides were resolved, identified, and quantified by high-resolution liquid chromatography-tandem mass spectrometry (LC-MS/MS). Resultant data were analyzed as previously described^[8a, 10a]. Table 2, below, lists sites of modification targeted by sulfonyl-triazole compounds HHS-0101, HHS-0201, HHS-0301, HHS-0401, and HHS-0701. The format of the table is as follows: protein Uniprot accession number (see uniprot.org); tyrosine site (amino acid position) modified; treatment (sulfonyl-triazole compound identification number, followed by Y (where if multiple compounds modify the same site, the compounds are separated by vertical lines).

P22626 = type: cell-based, human
Procedure: as §1, §2

Q9Y6D5 = biological target: T2, Q9Y6D5 (Homo sapiens, UniProt Q9Y6D5); type: cell-based
T2 construct: endogenous in cells; host or cells: DM93 cells (SILAC)
T2 sequence (Q9Y6D5 whole entry): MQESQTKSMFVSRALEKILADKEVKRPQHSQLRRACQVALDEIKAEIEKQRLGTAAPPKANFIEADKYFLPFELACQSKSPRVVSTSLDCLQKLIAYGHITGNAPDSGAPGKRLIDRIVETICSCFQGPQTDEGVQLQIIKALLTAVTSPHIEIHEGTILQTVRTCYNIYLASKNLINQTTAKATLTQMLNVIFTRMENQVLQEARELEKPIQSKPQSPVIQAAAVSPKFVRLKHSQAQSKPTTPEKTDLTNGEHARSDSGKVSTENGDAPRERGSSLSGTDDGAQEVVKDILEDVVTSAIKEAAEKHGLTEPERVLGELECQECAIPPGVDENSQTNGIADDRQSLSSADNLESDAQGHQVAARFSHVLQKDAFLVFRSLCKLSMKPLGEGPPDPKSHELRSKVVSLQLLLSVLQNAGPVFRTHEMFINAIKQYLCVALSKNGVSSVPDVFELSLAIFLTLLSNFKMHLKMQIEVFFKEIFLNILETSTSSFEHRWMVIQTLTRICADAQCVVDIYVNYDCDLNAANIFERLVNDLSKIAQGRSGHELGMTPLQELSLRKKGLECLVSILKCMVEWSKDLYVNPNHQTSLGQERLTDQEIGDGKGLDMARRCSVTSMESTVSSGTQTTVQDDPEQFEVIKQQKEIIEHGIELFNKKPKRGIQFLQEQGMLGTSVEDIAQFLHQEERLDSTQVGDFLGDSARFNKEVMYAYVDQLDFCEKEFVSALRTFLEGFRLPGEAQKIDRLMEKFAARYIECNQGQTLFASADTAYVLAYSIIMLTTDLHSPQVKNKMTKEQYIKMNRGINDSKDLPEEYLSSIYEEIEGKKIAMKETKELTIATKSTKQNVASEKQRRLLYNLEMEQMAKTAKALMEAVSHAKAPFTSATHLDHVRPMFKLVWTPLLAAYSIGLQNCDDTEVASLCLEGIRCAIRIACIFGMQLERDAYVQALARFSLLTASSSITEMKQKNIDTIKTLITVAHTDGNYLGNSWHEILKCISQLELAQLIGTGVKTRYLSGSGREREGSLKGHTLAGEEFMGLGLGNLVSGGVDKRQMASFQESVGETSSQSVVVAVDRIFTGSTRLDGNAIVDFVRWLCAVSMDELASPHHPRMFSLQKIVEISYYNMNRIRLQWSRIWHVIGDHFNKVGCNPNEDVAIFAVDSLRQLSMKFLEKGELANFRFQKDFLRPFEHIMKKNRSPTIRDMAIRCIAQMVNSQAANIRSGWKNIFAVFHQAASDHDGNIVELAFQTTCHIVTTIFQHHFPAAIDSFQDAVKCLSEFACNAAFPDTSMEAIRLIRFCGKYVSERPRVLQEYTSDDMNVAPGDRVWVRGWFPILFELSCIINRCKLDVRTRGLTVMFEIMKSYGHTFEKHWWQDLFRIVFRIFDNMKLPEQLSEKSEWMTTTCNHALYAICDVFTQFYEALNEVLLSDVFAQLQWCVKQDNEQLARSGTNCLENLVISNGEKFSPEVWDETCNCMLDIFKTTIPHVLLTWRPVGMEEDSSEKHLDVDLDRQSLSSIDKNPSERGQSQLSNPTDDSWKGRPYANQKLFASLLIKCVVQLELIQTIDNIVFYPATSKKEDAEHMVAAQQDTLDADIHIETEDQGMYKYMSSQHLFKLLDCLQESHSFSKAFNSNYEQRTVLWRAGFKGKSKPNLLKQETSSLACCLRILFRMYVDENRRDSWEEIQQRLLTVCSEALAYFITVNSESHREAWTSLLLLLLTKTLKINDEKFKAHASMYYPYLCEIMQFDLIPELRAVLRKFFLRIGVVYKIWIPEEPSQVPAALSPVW
Procedure: as §1, §2

Q9Y520 = biological target: T3, Q9Y520 (Homo sapiens, UniProt Q9Y520); type: cell-based
T3 construct: endogenous in cells; host or cells: DM93 cells (SILAC)
T3 sequence (Q9Y520 whole entry): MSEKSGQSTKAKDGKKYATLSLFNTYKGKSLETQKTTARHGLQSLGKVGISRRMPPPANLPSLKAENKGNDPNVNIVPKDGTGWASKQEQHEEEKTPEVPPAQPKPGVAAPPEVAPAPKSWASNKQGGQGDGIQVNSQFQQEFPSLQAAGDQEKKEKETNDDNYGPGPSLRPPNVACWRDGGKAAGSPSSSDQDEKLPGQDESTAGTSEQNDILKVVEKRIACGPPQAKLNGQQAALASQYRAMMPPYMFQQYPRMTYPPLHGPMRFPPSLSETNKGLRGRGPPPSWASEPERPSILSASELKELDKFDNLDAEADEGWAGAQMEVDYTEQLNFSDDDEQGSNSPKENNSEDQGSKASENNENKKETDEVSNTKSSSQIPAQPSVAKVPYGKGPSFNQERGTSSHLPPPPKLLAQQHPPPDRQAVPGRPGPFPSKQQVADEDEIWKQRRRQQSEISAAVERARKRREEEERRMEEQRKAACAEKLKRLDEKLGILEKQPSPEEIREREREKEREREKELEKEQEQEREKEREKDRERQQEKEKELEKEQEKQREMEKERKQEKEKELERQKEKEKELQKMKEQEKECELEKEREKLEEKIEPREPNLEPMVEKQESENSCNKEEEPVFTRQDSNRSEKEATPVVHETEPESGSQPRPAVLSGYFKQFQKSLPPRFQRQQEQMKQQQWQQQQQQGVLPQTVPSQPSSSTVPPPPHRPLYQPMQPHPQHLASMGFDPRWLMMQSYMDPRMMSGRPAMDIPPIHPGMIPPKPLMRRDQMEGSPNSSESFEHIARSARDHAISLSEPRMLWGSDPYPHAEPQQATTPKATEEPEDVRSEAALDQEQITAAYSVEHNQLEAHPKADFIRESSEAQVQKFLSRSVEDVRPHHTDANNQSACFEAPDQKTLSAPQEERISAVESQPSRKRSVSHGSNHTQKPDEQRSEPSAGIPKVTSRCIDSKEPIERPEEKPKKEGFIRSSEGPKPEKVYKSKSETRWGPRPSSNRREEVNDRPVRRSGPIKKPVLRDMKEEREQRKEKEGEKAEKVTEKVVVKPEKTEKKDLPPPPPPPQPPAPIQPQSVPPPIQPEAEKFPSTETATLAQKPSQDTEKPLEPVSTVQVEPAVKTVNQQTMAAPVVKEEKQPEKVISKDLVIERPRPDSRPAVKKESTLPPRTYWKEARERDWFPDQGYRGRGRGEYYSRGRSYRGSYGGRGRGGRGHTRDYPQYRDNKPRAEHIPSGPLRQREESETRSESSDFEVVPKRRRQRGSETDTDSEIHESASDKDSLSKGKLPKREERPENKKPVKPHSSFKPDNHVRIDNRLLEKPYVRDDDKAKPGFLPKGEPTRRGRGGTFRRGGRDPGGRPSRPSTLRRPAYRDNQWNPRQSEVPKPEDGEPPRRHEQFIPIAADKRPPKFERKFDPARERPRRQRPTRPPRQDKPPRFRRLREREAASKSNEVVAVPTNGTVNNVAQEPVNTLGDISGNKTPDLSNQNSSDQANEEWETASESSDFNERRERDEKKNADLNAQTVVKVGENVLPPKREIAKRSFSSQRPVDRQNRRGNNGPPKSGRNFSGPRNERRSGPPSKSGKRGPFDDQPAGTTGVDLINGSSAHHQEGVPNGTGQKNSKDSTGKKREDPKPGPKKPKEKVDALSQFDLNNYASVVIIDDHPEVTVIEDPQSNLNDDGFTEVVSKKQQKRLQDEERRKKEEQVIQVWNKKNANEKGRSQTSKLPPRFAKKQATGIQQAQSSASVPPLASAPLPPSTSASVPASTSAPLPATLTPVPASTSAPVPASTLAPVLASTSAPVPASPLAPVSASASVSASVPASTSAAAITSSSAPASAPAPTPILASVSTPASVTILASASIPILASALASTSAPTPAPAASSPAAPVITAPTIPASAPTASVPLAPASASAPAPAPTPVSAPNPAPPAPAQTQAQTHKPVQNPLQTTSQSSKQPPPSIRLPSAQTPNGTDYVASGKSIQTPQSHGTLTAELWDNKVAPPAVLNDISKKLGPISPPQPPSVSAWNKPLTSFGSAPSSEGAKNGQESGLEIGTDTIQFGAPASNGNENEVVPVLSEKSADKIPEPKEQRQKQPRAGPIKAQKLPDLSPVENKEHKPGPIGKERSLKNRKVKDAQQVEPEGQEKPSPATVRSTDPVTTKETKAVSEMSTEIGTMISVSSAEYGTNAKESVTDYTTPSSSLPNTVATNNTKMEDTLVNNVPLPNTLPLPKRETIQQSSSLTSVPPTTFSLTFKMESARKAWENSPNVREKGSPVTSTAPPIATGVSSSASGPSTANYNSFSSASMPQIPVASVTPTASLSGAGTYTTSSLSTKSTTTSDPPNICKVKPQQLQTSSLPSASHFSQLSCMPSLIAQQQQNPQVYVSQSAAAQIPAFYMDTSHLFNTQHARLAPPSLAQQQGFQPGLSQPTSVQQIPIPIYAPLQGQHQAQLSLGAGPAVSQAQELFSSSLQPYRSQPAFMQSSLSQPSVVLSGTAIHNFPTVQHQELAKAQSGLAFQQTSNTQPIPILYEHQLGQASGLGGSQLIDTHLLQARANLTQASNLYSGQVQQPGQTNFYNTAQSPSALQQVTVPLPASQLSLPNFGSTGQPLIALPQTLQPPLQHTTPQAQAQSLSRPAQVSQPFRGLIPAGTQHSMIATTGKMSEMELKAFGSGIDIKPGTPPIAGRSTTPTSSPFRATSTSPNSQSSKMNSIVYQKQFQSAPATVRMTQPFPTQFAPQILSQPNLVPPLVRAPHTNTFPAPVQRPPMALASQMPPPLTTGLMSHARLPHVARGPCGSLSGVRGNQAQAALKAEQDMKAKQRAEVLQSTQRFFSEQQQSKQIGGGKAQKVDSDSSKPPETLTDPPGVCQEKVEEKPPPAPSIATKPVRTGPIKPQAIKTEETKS
Procedure: as §1, §2

Q14157 = biological target: T4, Q14157 (Homo sapiens, UniProt Q14157); type: cell-based
T4 construct: performing SuTEx compound screening directly in cells; endogenous in cells; host or cells: DM93 cells (SILAC), soluble fraction
T4 sequence (Q14157 1-1087): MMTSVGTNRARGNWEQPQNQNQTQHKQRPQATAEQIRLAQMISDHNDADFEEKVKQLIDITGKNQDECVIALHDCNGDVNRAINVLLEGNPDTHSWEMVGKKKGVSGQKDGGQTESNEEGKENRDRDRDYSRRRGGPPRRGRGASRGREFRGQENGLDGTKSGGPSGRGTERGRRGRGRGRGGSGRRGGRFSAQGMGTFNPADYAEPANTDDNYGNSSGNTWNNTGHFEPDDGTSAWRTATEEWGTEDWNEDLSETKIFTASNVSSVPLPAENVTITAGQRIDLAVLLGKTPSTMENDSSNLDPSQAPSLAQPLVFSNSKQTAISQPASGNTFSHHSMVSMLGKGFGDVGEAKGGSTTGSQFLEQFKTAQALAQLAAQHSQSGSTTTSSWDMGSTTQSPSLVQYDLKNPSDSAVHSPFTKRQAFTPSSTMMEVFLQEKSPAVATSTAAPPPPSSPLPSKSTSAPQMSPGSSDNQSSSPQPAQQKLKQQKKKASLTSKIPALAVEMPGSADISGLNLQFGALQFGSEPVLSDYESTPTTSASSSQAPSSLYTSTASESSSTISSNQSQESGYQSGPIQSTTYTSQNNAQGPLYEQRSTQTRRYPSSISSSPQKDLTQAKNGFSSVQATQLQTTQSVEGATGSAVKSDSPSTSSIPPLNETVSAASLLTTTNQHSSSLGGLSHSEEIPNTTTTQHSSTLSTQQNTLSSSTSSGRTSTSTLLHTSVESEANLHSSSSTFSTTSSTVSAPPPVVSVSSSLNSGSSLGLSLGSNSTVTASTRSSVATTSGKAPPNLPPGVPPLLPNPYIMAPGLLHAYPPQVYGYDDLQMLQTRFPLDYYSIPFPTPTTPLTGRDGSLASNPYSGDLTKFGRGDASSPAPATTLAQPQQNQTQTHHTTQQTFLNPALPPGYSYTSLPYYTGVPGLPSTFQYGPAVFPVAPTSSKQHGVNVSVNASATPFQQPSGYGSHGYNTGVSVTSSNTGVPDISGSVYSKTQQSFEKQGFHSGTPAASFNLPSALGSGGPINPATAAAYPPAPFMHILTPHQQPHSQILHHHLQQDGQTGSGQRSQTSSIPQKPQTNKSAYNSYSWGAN
Procedure: as §1, §2

T1 sequence (Q9ULV4 whole entry): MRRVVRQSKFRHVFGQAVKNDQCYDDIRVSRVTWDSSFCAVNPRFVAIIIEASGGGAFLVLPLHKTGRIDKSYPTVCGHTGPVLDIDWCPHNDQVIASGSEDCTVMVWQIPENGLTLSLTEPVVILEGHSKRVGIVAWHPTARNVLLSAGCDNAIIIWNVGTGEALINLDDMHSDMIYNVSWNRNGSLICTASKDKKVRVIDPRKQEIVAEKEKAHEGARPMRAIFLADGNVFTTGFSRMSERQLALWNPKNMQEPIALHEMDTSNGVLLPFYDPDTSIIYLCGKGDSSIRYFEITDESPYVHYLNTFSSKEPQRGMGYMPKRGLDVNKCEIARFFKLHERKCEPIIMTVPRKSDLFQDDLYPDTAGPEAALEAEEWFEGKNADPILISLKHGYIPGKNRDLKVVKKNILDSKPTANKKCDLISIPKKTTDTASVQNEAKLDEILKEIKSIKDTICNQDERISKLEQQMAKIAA

O=C(c1ccc(S(=O)(=O)n2cncn2)cc1)N1CCC(c2ccccc2)CC1 [HHS-0701, (4-((1H-1,2,4-triazol-1-yl)sulfonyl)phenyl)(4-phenylpiperidin-1-yl)methanone]
liganded tyrosine site 304 (Q9ULV4): HHS0701.Y (tyrosine sites that showed >80% reductions (SR >5) in probe labeling in cells treated with compounds (liganded sites))

O=C(NC1CC1)c1ccc(S(=O)(=O)n2cncn2)cc1 [HHS-0101, 4-((1H-1,2,4-triazol-1-yl)sulfonyl)-N-cyclopropylbenzamide]
liganded tyrosine site 262 (P22626): HHS0101.Y (tyrosine sites that showed >80% reductions (SR >5) in probe labeling in cells treated with compounds (liganded sites))
liganded tyrosine site 1632 (Q9Y6D5): HHS0101.Y|HHS0301.Y|HHS0701.Y (tyrosine sites that showed >80% reductions (SR >5) in probe labeling in cells treated with compounds (liganded sites))

O=C(NC1CCCCC1)c1ccc(S(=O)(=O)n2cncn2)cc1 [HHS-0301, 4-((1H-1,2,4-triazol-1-yl)sulfonyl)-N-cyclohexylbenzamide]
liganded tyrosine site 301 (Q9ULV4): HHS0301.Y (tyrosine sites that showed >80% reductions (SR >5) in probe labeling in cells treated with compounds (liganded sites))

O=C(NCc1ccccc1)c1ccc(S(=O)(=O)n2cncn2)cc1 [HHS-0401, 4-((1H-1,2,4-triazol-1-yl)sulfonyl)-N-benzylbenzamide]
liganded tyrosine site 97 (Q9Y6D5): HHS0401.Y (tyrosine sites that showed >80% reductions (SR >5) in probe labeling in cells treated with compounds (liganded sites))
liganded tyrosine site 2707 (Q9Y520): HHS0401.Y (tyrosine sites that showed >80% reductions (SR >5) in probe labeling in cells treated with compounds (liganded sites))
liganded tyrosine site 803 (Q14157): HHS0401.Y (tyrosine sites that showed >80% reductions (SR >5) in probe labeling in cells treated with compounds (liganded sites))

O=C(NCC1CC1)c1ccc(S(=O)(=O)n2cncn2)cc1 [HHS-0201, 4-((1H-1,2,4-triazol-1-yl)sulfonyl)-N-(cyclopropylmethyl)benzamide]
liganded tyrosine site 244 (P22626): HHS0201.Y (tyrosine sites that showed >80% reductions (SR >5) in probe labeling in cells treated with compounds (liganded sites))
liganded tyrosine site 247 (P22626): HHS0201.Y (tyrosine sites that showed >80% reductions (SR >5) in probe labeling in cells treated with compounds (liganded sites))
liganded tyrosine site 283 (P22626): HHS0201.Y (tyrosine sites that showed >80% reductions (SR >5) in probe labeling in cells treated with compounds (liganded sites))
liganded tyrosine site 26 (Q9Y520): HHS0201.Y (tyrosine sites that showed >80% reductions (SR >5) in probe labeling in cells treated with compounds (liganded sites))
liganded tyrosine site 204 (Q14157): HHS0201.Y (tyrosine sites that showed >80% reductions (SR >5) in probe labeling in cells treated with compounds (liganded sites))
liganded tyrosine site 214 (Q14157): HHS0201.Y (tyrosine sites that showed >80% reductions (SR >5) in probe labeling in cells treated with compounds (liganded sites))
